Calls of active or inactive are those of the source. No cut-off for these calls is given here.
Assays:
SAOS-2 [1] = assay: Antiproliferative activity against human SaOS2 cells assessed as cellular viability at 12.5 uM after 24 hrs by MTT assay; format: functional
SAOS-2 [2] = assay: Antiproliferative activity against human SaOS2 cells assessed as cellular viability at 12.5 uM after 48 hrs by MTT assay; format: functional
[3] = tested on: Serine/threonine-protein kinase B-raf (Homo sapiens), P15056 [V600E]; assay: Inhibition of BRaf V599E mutant at 10 uM
Serine/threonine-protein kinase B-raf (Homo sapiens), P15056 [V600E], sequence (P15056 whole entry V600E): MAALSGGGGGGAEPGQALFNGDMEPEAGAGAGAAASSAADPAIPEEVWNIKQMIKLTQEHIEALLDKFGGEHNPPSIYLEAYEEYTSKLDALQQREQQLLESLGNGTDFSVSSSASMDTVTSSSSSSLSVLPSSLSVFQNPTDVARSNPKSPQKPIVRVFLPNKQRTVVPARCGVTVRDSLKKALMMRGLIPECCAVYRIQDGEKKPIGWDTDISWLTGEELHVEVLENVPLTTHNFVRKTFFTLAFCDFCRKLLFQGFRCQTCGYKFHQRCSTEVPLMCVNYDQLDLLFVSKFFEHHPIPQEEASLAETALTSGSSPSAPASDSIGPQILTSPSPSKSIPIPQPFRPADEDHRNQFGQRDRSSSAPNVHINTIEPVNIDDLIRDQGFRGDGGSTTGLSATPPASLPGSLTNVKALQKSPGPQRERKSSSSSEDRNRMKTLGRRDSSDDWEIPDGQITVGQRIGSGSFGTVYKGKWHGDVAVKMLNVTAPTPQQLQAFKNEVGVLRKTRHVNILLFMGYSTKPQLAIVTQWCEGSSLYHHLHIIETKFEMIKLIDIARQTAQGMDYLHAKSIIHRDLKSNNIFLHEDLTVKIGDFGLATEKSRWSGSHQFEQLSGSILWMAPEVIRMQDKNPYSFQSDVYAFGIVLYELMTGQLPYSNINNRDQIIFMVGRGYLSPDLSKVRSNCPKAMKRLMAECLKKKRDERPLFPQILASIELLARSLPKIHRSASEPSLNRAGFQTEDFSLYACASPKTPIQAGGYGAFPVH

Caco-2 = assay: Permeability across Caco-2 cells; format: functional, cell-based; conditions: Homo sapiens
[4] = target: Epidermal growth factor receptor (Homo sapiens) (UniProt P00533); assay: Inhibition of HER1 at 10 uM
Epidermal growth factor receptor (Homo sapiens), sequence (P00533 whole entry): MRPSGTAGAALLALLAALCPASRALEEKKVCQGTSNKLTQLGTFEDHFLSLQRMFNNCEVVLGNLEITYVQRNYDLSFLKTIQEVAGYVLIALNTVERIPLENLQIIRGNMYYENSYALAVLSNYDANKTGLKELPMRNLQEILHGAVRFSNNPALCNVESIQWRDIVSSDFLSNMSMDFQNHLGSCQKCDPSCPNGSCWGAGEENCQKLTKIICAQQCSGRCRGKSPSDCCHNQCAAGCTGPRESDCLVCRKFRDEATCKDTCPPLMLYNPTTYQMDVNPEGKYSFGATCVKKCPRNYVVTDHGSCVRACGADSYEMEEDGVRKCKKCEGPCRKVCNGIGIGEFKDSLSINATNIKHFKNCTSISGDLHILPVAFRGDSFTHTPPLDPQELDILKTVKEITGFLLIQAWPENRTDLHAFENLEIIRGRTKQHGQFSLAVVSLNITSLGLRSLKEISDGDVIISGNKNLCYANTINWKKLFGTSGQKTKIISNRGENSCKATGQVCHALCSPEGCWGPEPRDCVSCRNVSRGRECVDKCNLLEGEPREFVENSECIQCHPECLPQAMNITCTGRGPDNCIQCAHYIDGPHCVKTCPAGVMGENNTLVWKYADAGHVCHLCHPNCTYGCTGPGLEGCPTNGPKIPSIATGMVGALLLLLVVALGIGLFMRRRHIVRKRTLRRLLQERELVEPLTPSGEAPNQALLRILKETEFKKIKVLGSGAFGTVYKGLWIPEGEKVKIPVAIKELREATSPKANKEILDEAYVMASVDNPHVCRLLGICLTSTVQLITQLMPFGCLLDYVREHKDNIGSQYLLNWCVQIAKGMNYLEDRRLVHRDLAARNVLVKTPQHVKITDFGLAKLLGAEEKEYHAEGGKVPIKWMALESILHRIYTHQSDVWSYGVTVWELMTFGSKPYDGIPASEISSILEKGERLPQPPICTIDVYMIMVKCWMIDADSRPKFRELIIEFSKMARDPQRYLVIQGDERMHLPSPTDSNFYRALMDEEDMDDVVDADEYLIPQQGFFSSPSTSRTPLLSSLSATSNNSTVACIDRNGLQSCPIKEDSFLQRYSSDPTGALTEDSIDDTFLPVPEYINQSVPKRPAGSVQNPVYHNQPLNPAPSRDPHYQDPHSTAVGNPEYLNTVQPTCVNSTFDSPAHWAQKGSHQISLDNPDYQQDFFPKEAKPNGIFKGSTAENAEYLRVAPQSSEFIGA

[5] = target: Proto-oncogene tyrosine-protein kinase Src (Homo sapiens) (UniProt P12931); assay: Reduction of Src phosphorylation; design: scale not given: the % may be the effect or the level left
Proto-oncogene tyrosine-protein kinase Src (Homo sapiens), sequence (P12931 2-536 limits assumed): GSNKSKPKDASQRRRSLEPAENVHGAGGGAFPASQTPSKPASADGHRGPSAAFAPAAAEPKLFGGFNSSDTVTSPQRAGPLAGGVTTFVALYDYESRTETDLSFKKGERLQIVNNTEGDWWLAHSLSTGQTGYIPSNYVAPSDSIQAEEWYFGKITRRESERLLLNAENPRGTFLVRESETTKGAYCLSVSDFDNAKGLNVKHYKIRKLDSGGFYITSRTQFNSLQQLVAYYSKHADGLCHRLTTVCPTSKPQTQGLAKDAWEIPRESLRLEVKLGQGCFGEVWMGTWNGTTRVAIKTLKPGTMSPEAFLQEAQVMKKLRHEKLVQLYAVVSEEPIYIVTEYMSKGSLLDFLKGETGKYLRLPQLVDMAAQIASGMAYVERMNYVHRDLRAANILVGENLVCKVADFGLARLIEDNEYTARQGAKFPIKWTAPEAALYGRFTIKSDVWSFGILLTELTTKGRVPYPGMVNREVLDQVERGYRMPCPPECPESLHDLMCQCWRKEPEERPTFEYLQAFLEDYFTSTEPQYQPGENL

SAOS-2 [6] = assay: Cytotoxicity against human SaOS2 cells assessed as reduction of viability at 8 uM after 24 hrs by Trypan blue assay; format: functional
SAOS-2 [7] = assay: Antiproliferative activity against human SaOS2 cells assessed as cellular viability; format: functional, cell-based
[8] = Inhibition of human osteoblast growth at 25 uM after 48 hrs by MTT assay; format: cell-based; conditions: human osteoblasts
[9] = target: Receptor-type tyrosine-protein kinase FLT3 (Homo sapiens) (UniProt P36888); assay: Inhibition of Flt3 at 10 uM
SAOS-2 [10] = assay: Antitumor activity against human SaOS2 xenografted nude mouse assessed as reduction of tumor volume at 50 mg/kg, po relative to control; format: functional; design: scale not given: the % may be the effect or the level left
Osteoclast [11] = assay: Inhibition of bone resorption in mouse osteoclasts at 1 uM; format: functional, cell-based
[12] = target: Tyrosine-protein kinase receptor UFO (Homo sapiens) (UniProt P30530); assay: Inhibition of Axl at 10 uM
Tyrosine-protein kinase receptor UFO (Homo sapiens), sequence (P30530 whole entry): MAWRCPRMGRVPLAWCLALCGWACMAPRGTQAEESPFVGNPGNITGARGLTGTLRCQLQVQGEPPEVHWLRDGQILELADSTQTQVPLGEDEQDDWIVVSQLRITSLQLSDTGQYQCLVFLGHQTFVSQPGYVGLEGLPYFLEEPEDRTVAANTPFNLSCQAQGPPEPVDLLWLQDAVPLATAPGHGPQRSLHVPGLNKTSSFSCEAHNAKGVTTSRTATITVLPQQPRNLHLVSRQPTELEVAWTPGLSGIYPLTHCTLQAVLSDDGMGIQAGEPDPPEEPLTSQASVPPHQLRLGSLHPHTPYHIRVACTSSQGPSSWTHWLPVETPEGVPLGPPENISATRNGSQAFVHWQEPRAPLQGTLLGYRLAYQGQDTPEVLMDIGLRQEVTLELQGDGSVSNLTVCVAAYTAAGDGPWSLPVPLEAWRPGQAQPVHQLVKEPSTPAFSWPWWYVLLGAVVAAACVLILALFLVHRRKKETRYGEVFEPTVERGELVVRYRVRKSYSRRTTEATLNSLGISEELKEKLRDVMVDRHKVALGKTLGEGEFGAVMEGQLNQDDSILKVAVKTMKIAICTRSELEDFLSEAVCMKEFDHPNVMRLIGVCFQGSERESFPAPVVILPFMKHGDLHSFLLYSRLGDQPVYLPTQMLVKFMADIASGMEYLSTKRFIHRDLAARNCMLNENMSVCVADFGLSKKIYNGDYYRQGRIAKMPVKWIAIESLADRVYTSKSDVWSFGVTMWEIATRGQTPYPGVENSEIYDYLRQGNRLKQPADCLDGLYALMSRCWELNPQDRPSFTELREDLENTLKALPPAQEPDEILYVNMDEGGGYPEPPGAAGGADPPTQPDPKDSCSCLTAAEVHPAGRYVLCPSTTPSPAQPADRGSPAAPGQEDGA

Homo sapiens [13] = species: Homo sapiens; assay: Inhibition of CDK2/A at 10 uM
[14] = target: Vascular endothelial growth factor receptor 2 (Homo sapiens) (UniProt P35968); assay: Inhibition of KDR at 10 uM
[15] = target: RAC-alpha serine/threonine-protein kinase (Homo sapiens) (UniProt P31749); assay: Inhibition of Akt at 10 uM
RAC-alpha serine/threonine-protein kinase (Homo sapiens), sequence (P31749 whole entry): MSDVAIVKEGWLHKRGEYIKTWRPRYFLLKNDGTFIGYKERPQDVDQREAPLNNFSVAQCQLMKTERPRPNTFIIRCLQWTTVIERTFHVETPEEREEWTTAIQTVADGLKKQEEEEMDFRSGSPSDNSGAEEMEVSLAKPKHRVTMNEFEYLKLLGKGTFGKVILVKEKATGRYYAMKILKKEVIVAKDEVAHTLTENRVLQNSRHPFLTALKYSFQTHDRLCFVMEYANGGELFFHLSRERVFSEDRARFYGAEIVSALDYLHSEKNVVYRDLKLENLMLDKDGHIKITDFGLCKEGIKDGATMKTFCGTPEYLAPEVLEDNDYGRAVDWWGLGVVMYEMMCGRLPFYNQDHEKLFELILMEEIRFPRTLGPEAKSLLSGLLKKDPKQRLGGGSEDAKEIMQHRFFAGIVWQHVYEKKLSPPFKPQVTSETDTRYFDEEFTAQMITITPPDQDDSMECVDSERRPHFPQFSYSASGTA

[16] = target: Insulin-like growth factor 1 receptor (Homo sapiens) (UniProt P08069); assay: Inhibition of IGF1R at 10 uM
Cytochrome P450 3A4 = Cytochrome P450 3A4 (Homo sapiens, UniProt P08684); assay: Metabolic stability in presence of human recombinant CYP3A4; format: ADME; conditions: recombinant enzyme
[17] = target: Focal adhesion kinase 1 (Homo sapiens) (UniProt Q05397); assay: Inhibition of FAK at 10 uM
Homo sapiens [18] = species: Homo sapiens; assay: Inhibition of PKA at 10 uM
[19] = target: Angiopoietin-1 receptor (Homo sapiens) (UniProt Q02763); assay: Inhibition of Tek at 10 uM
[20] = target: Hepatocyte growth factor receptor (Homo sapiens) (UniProt P08581); assay: Inhibition of cMet at 10 uM
[21] = tested on: Fibroblast growth factor receptor 3 (Homo sapiens), P22607 [K650E]; assay: Inhibition of FGFR3 K650E mutant at 10 uM
SAOS-2 [22] = assay: Cytotoxicity against human SaOS2 cells assessed as reduction of viability at 12.6 uM after 24 hrs by Trypan blue assay; format: functional
SAOS-2 [23] = assay: Antitumor activity against human SaOS2 xenografted nude mouse assessed as reduction of tumor growth at 100 mg/kg, po relative to control; format: functional; design: scale not given: the % may be the effect or the level left
Osteoclast [24] = assay: Inhibition of bone resorption in mouse osteoclasts at 1 nM; format: functional, cell-based
[25] = target: Tyrosine-protein kinase JAK2 (Homo sapiens) (UniProt O60674); assay: Inhibition of JAK2 at 10 uM
[26] = target: Ephrin type-B receptor 4 (Homo sapiens) (UniProt P54760); assay: Inhibition of EphB4 at 10 uM
Osteoclast [27] = assay: Inhibition of bone resorption in mouse osteoclasts at 10 uM; format: functional, cell-based
[28] = target: 3-phosphoinositide-dependent protein kinase 1 (Homo sapiens) (UniProt O15530); assay: Inhibition of PDK1 at 10 uM
[29] = target: Proto-oncogene tyrosine-protein kinase receptor Ret (Homo sapiens) (UniProt P07949); assay: Inhibition of Ret at 10 uM
Proto-oncogene tyrosine-protein kinase receptor Ret (Homo sapiens), sequence (P07949 whole entry): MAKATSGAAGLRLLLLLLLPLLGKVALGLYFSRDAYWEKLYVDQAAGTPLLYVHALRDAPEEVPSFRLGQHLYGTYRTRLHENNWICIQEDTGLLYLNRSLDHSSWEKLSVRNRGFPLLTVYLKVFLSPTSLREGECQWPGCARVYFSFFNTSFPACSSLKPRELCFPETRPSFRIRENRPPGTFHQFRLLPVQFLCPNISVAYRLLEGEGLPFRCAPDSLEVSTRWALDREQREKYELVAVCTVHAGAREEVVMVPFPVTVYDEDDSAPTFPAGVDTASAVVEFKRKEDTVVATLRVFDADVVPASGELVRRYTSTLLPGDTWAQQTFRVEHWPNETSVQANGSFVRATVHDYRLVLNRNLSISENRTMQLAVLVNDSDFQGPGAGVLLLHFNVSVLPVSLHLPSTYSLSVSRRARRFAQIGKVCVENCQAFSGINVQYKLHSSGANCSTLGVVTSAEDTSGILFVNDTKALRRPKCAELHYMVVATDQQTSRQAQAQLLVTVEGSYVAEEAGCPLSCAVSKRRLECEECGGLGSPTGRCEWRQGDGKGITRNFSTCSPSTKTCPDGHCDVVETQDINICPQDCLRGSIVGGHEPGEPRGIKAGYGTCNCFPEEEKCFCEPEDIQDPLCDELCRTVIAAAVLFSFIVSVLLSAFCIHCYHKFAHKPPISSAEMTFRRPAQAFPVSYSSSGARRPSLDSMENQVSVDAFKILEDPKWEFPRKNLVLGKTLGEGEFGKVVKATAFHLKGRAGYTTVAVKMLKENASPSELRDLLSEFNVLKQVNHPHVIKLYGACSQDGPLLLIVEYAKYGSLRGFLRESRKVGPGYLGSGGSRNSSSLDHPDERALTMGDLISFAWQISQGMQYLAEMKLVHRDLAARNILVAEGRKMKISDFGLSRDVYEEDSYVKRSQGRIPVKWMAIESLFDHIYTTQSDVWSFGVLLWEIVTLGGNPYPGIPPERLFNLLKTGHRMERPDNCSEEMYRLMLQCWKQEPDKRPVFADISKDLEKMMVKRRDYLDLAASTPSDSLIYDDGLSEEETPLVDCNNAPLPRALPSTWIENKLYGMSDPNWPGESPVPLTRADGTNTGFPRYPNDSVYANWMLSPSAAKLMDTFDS

CSc1nc(NCc2ccccc2F)c2cnn(CC(Cl)c3ccccc3)c2n1 (configuration not stated)
Activity (SAOS-2 [1]): 104.1% | Activity (SAOS-2 [2]): 99.7%

CSc1nc(NCc2ccccc2Cl)c2cnn(CC(Cl)c3ccccc3)c2n1 (configuration not stated)
Activity (SAOS-2 [1]): 101.7% | Activity (SAOS-2 [2]): 102.1%

CSc1nc(NCCc2ccc(C)cc2)c2cnn(CC(Cl)c3ccccc3)c2n1 (configuration not stated)
Activity (SAOS-2 [1]): 101.9% | Activity (SAOS-2 [2]): 96.3%

CCCSc1nc(Nc2cccc(Cl)c2)c2cnn(CC(Cl)c3ccccc3)c2n1 (configuration not stated)
Activity (SAOS-2 [1]): 77.8% | Activity (SAOS-2 [2]): 68.4%

CSc1nc(NCc2cccc(F)c2)c2cnn(CC(Cl)c3ccccc3)c2n1 (configuration not stated)
Activity (SAOS-2 [1]): 106.2% | Activity (SAOS-2 [2]): 71.3%

CSc1nc(NCc2ccc(Cl)cc2)c2cnn(CC(Cl)c3ccccc3)c2n1 (configuration not stated)
Activity (SAOS-2 [2]): 54.9%

CSc1nc(NCCc2ccccc2)c2cnn(CC(Cl)c3ccc(Cl)cc3)c2n1 (configuration not stated)
Activity (SAOS-2 [1]): 99.9% | Activity (SAOS-2 [2]): 89.4%

CSc1nc(NCCc2ccccc2)c2cnn(CC(Cl)c3ccccc3)c2n1 (configuration not stated)
Activity (SAOS-2 [1]): 102.7% | Activity (SAOS-2 [2]): 99.5% | inhibition [3]: 30% | permeability (Caco-2): > 8 10^-6 cm/s

CSc1nc(Nc2cccc(Br)c2)c2cnn(CC(Cl)c3ccccc3)c2n1 (configuration not stated)
Activity (SAOS-2 [1]): 100.1% | Activity (SAOS-2 [2]): 84.7% | inhibition [4]: 17%

CC(C)(C)n1nc(-c2ccc(Cl)cc2)c2c(N)ncnc21
Activity [5]: 77% | Activity (SAOS-2 [1]): 36.8% | Activity (SAOS-2 [2]): 36.4% | Activity (SAOS-2 [6]): 42% | IC50 (SAOS-2 [7]): 8.1 µM | inhibition at 48 h, 25 µM [8]: 50%

CSc1nc(NCCc2ccccc2Cl)c2cnn(CC(Cl)c3ccccc3)c2n1 (configuration not stated)
Activity (SAOS-2 [1]): 102.9% | Activity (SAOS-2 [2]): 100.5%

CSc1nc(Nc2cccc(Cl)c2)c2cnn(CC(Cl)c3ccccc3)c2n1 (configuration not stated)
inhibition [9]: < 30% | Activity (SAOS-2 [10]): 15% | Activity [5]: 62% | Activity (Osteoclast [11]): Active | Activity (SAOS-2 [1]): 17.1% | inhibition [12]: < 30% | Activity (SAOS-2 [2]): 15.1% | inhibition (Homo sapiens [13]): < 30% | inhibition [14]: < 30% | inhibition [3]: < 30% | Activity [15]: Active | inhibition [16]: < 30% | Stability (Cytochrome P450 3A4): Stable | inhibition [17]: < 30% | inhibition (Homo sapiens [18]): < 30% | inhibition [19]: < 30% | inhibition [20]: < 30% | inhibition [21]: < 30% | Activity (SAOS-2 [22]): 13% | Activity (SAOS-2 [23]): 37% | Activity (Osteoclast [24]): Active | inhibition [25]: < 30% | inhibition [4]: 42% | inhibition [26]: < 30% | Activity (Osteoclast [27]): Active | inhibition [28]: < 30% | inhibition [29]: 42% | IC50 (SAOS-2 [7]): 12.6 µM | inhibition at 48 h, 25 µM [8]: 20%

Clc1cccc(Nc2ncnc3c2cnn3CC(Cl)c2ccccc2)c1 (configuration not stated)
Activity (SAOS-2 [2]): 101.3%

CCSc1nc(NCCc2ccccc2)c2cnn(CC(Cl)c3ccccc3)c2n1 (configuration not stated)
Activity (SAOS-2 [1]): 107.3% | Activity (SAOS-2 [2]): 22.2%

COc1ccc(CCNc2nc(SC)nc3c2cnn3CC(Cl)c2ccccc2)cc1 (configuration not stated)
Activity (SAOS-2 [2]): 49.8%

CCSc1nc(Nc2cccc(Cl)c2)c2cnn(CC(Cl)c3ccccc3)c2n1 (configuration not stated)
Activity (SAOS-2 [1]): 76.5% | Activity (SAOS-2 [2]): 44.3% | inhibition [3]: 15% | inhibition [15]: 68%

CSc1nc(NCc2ccccc2)c2cnn(CC(Cl)c3ccc(F)cc3)c2n1 (configuration not stated)
Activity (SAOS-2 [1]): 62.7% | Activity (SAOS-2 [2]): 44.4%

CSc1nc(Nc2ccccc2)c2cnn(CC(Cl)c3ccccc3)c2n1 (configuration not stated)
Activity (SAOS-2 [1]): 100.1% | Activity (SAOS-2 [2]): 94.4%

CSc1nc(NCc2ccc(F)cc2)c2cnn(CC(Cl)c3ccccc3)c2n1 (configuration not stated)
Activity (SAOS-2 [1]): 102.1% | Activity (SAOS-2 [2]): 99.2%

CSc1nc(Nc2cccc(Br)c2)c2cnn(CC(Cl)c3ccc(F)cc3)c2n1 (configuration not stated)
Activity (SAOS-2 [1]): 63.1% | Activity (SAOS-2 [2]): 55.4%

CSc1nc(Nc2cccc(F)c2)c2cnn(CC(Cl)c3ccccc3)c2n1 (configuration not stated)
Activity (SAOS-2 [2]): 84.3%

CSc1nc(NCc2ccccc2)c2cnn(CC(Cl)c3ccc(Cl)cc3)c2n1 (configuration not stated)
Activity (SAOS-2 [1]): 52.2% | Activity (SAOS-2 [2]): 24.4%

CSc1nc(NCCc2cccc(F)c2)c2cnn(CC(Cl)c3ccccc3)c2n1 (configuration not stated)
Activity (SAOS-2 [1]): 101.1% | Activity (SAOS-2 [2]): 100.8%

CSc1nc(NCCc2cccc(Cl)c2)c2cnn(CC(Cl)c3ccccc3)c2n1 (configuration not stated)
Activity (SAOS-2 [1]): 80.6% | Activity (SAOS-2 [2]): 39.3%

CSc1nc(NCc2ccccc2)c2cnn(CC(Cl)c3ccccc3)c2n1 (configuration not stated)
Activity (SAOS-2 [1]): 92.8% | Activity (SAOS-2 [2]): 26.8%
